Laboratory results as given in patent US5440016A, “Peptides of the formula (KFmoc) ZZZ and their uses” (priority 1993, dated 1995).
Square brackets hold non-standard residues; d marks the D form. Peptide text beside a SMILES is read from it. * marks the point of attachment. Phe(4-NO2) = N[C@@H](Cc1ccc([N+](=O)[O-])cc1)C(=O)O; Met(O2) = CS(=O)(=O)CC[C@H](N)C(=O)O; Fmoc = O=C(OCC1c2ccccc2-c2ccccc21)*; Nle = CCCC[C@H](N)C(=O)O; Thz = O=C(O)[C@@H]1CSCN1; Nva = CCC[C@H](N)C(=O)O; Abu = CC[C@H](N)C(=O)O; Aib = CC(C)(N)C(=O)O

System: Human red blood cells (RBCs)
Experiment: Hemolytic activity
Format: cell-based
Settings: Tables 18-21
Experimental: Each assay was carried out in 96-well culture tissue plates. Four wells per plate contain 125 μl of a non-peptide positive control (1% Triton in de-ionized water), and four wells per plate contain 125 μl of a control blank, phosphate buffered saline (PBS). The hemolytic peptide melittin was used as comparative control. The controls served to detect possible contamination and to calculate the percent hemolysis of each peptide. Human red blood cells (RBCs) were washed with PBS and centrifuged to separate them from the serum. The cells were then resuspended in PBS to a final suspension of 0.5% RBC. 125 μl of this suspension was added to the peptides and controls solution. The release of hemoglobin resulting from the cell lysis was determined by measuring the OD at 414 nm of 100 μl of the supernatant.

| Structure (SMILES) | HD50 (concentration necessary to lyse 50% of the cells) |
| --- | --- |
| CS(=O)(=O)CC[C@H](NC(=O)[C@H](CCCCN)NC(=O)[C@H](Cc1c[nH]c2ccccc12)NC(=O)[C@H](CCCCN)NC(=O)OCC1c2ccccc2-c2ccccc21)C(N)=O [(KFmoc)WK(MetO2)-NH2] (Fmoc-KWK[Met(O2)]-NH2) | 437 µg/mL |
| NCCCC[C@H](NC(=O)OCC1c2ccccc2-c2ccccc21)C(=O)N[C@@H](Cc1c[nH]c2ccccc12)C(=O)N[C@@H](CCCCN)C(=O)N[C@@H](Cc1ccc([N+](=O)[O-])cc1)C(N)=O [(KFmoc)WK(NO2 F)-NH2] (Fmoc-KWK[Phe(4-NO2)]-NH2) | 67 µg/mL |
| CCCC[C@H](NC(=O)[C@H](CCCCN)NC(=O)[C@H](Cc1c[nH]c2ccccc12)NC(=O)[C@H](CCCCN)NC(=O)OCC1c2ccccc2-c2ccccc21)C(N)=O [(KFmoc)WK(Nle)-NH2] (Fmoc-KWK[Nle]-NH2) | 91 µg/mL |
| CCC[C@H](NC(=O)[C@H](CCCCN)NC(=O)[C@H](Cc1c[nH]c2ccccc12)NC(=O)[C@H](CCCCN)NC(=O)OCC1c2ccccc2-c2ccccc21)C(N)=O [(KFmoc)WK(Nve)-NH2] (Fmoc-KWK[Nva]-NH2) | 98 µg/mL |
| NCCCC[C@H](NC(=O)OCC1c2ccccc2-c2ccccc21)C(=O)N[C@@H](Cc1c[nH]c2ccccc12)C(=O)N[C@@H](CCCCN)C(=O)N1CSC[C@H]1C(N)=O [(KFmoc)WK(Thiopro)-NH2] (Fmoc-KWK[Thz]-NH2) | 108 µg/mL |
| CC[C@H](NC(=O)[C@H](CCCCN)NC(=O)[C@H](Cc1c[nH]c2ccccc12)NC(=O)[C@H](CCCCN)NC(=O)OCC1c2ccccc2-c2ccccc21)C(N)=O [(KFmoc)WK(aABA)-NH2] (Fmoc-KWK[Abu]-NH2) | 449 µg/mL |
| CC(C)(NC(=O)[C@H](CCCCN)NC(=O)[C@H](Cc1c[nH]c2ccccc12)NC(=O)[C@H](CCCCN)NC(=O)OCC1c2ccccc2-c2ccccc21)C(N)=O [(KFmoc)WK(aAIB)-NH2] (Fmoc-KWK[Aib]-NH2) | 447 µg/mL |
| C[C@H](NC(=O)[C@H](CCCCN)NC(=O)[C@H](Cc1c[nH]c2ccccc12)NC(=O)[C@H](CCCCN)NC(=O)OCC1c2ccccc2-c2ccccc21)C(N)=O [(KFmoc)WKA-NH2] (Fmoc-KWKA-NH2) | 378 µg/mL |
| NCCCC[C@H](NC(=O)OCC1c2ccccc2-c2ccccc21)C(=O)N[C@@H](Cc1c[nH]c2ccccc12)C(=O)N[C@@H](CCCCN)C(=O)N[C@@H](CS)C(N)=O [(KFmoc)WKC-NH2] (Fmoc-KWKC-NH2) | 43 µg/mL |
| NCCCC[C@H](NC(=O)OCC1c2ccccc2-c2ccccc21)C(=O)N[C@@H](Cc1c[nH]c2ccccc12)C(=O)N[C@@H](CCCCN)C(=O)N[C@@H](Cc1ccccc1)C(N)=O [(KFmoc)WKF-NH2] (Fmoc-KWKF-NH2) | 105 µg/mL |
| NCCCC[C@H](NC(=O)OCC1c2ccccc2-c2ccccc21)C(=O)N[C@@H](Cc1c[nH]c2ccccc12)C(=O)N[C@@H](CCCCN)C(=O)NCC(N)=O [(KFmoc)WKG-NH2] (Fmoc-KWKG-NH2) | 449 µg/mL |
| NCCCC[C@H](NC(=O)OCC1c2ccccc2-c2ccccc21)C(=O)N[C@@H](Cc1c[nH]c2ccccc12)C(=O)N[C@@H](CCCCN)C(=O)N[C@@H](Cc1c[nH]cn1)C(N)=O [(KFmoc)WKH-NH2] (Fmoc-KWKH-NH2) | 312 µg/mL |
| CC[C@H](C)[C@H](NC(=O)[C@H](CCCCN)NC(=O)[C@H](Cc1c[nH]c2ccccc12)NC(=O)[C@H](CCCCN)NC(=O)OCC1c2ccccc2-c2ccccc21)C(N)=O [(KFmoc)WKI-NH2] (Fmoc-KWKI-NH2) | 141 µg/mL |
| NCCCC[C@H](NC(=O)[C@H](CCCCN)NC(=O)[C@H](Cc1c[nH]c2ccccc12)NC(=O)[C@H](CCCCN)NC(=O)OCC1c2ccccc2-c2ccccc21)C(N)=O [(KFmoc)WKK-NH2] (Fmoc-KWKK-NH2) | 469 µg/mL |
